Measured values from EP1674096A2, “Hypoglycemics comprising organic zinc (II) complexes” (Japan Science and Technology Agency, priority 1999, dated 2001).

Assays:
rat adipocyte = assay: Inhibition of free fatty acid (FFA) release from epinephrine-stimulated rat adipocytes; format: cell-based; details: concentration inhibiting release of the fatty acid by 50 %, relative values with IC50 of VOSO4 regarded as 1.00 mM, 10^-5 M epinephrine, 3 hours at 37°C, glycine complex in aqueous solution, others in physiological saline
Experimental: A pharmacological test was conducted as described below in accordance with the method reported in Biol.Pharm.Bull., 18, 719-725 (1995).
A male Wistar rat weighing 200 g was exsanguinated under an anesthesia with ether, and a fat cell mass was isolated from a fat tissue around an epididymis according to the method of Road Bell (J. Biol. Chem. , 239, 375(1964)). The fat cell mass was cut into pieces using scissors, and digested for 1 hour at 37°C in a KRB buffer solution (5 mM Glucose, 120 mM NaCl, 1.27 mM CaCl2, 1.2 mM MgSO4, 4.75 mM KCl, 1.2 mM KH2PO4 and 24 […]; pH=7.4) supplemented with 20 mg of bovine serum albumin (BSA) and 2 mg of collagenase per ml. The fat cells were sieved through a nylon mesh (250 µm) whereby being made free from any undigested tissue, washed three times with the buffer similar to that described above except for containing no collagenase, and adjusted at 2.5 x 10^6 cells/ml.
Then the reaction mixture was combined with 10^-5 M epinephrine and the resultant solution was incubated for 3 hours at 37°C. The reaction was quenched by cooling with ice, and the mixture was centrifuged for 10 minutes at 3000 rpm. The extracellular solution was examined for its free fatty acid (FFA) level using an NEFA kit whereby calculating an IC50 value.

KK-A^y mice [1] = assay: Body weight change in KK-A^y mice under daily intraperitoneal treatment (index of side effects); format: in vivo; details: intraperitoneally once a day, 4.5 or 2.5 mg Zn/kg depending on blood glucose, 13 to 15 days (Figures 9 to 11)
Experimental: (§1) In the control group, 0.5 ml of the acacia solution was given.

KK-A^y mice [2] = assay: Glucose tolerance test in KK-A^y mice after 15 days of treatment; format: in vivo; details: KK-A^y mice fasted for 13 hours, glucose orally at 1 g/kg; compared with control mice (Figure 12)
Experimental: 8-Week old KK-A^y mice were treated intraperitoneally once a day with a 5 % acacia solution in a control group (n=6) or with Zn(PA)2 (n=6), Zn(maltol)2 (n=7) or Zn(Cys-OMe)2 (n=6) dissolved in a 5 % acacia solution in the complex treatment groups.
as §1
(glucose tolerance test: A mouse was fasted for 13 hours and then administered orally with glucose at 1 g/kg, and then the blood glucose levels were determined at certain time intervals.)

KK-A^y mice [3] = assay: Glucose tolerance test in KK-A^y mice after 3 days of treatment; format: in vivo; details: 4 mg/kg once a day for 3 days, then fasted for 14 hours, compared with mice not receiving the complex (Figure 3)
Experimental: Subsequently, KK-A^y mice as type II diabetes model animals and humans were subjected to the glucose tolerance tests to obtain blood glucose curves, which are shown in Figure 3 and Figure 4.
In Figure 3, (a) denotes a blood glucose curve obtained in a glucose tolerance test in mice each of which received 4 mg/kg of Zn(PA)2(H2O)2 as an inventive zinc (II) complex once a day for 3 days and then fasted for 14 hours, and (b) denotes one in a control group in which the mice were not treated with the complex. In Figure 4, (a) denotes a blood glucose curve obtained in a glucose tolerance test in diabetes patients, while (b) denotes one in normal healthy volunteers.

[4] = Glucose +, 6-methyl-picolinic acid and pyridine-2-acetic acid complexes in DMSO

| Compound | IC50 (rat adipocyte; [4]) | IC50 (rat adipocyte; Glucose -) | other results |
| --- | --- | --- | --- |
| trans-bis(glycine) zinc (II) complex [Zn(Gly)2/1.0H2O] | 0.63 mM | 0.84 mM |  |
| O=C(O)c1cccc(Br)n1 [Zn(6BPA)2] |  | 0.45 mM |  |
| O=S(=O)([O-])[O-].[O]=[V+2] [VOSO4/5.4 or 2.3H2O, Oxovanadium sulfate, reference compound] | 1 mM | 1 mM |  |
| cis-bis(threonine) zinc (II) complex [cis-[Zn(Thr)2(H2O)2]] |  | 1.3 mM |  |
| Cc1cccnc1C(=O)O [Zn(3MPA)2] |  | 0.42 mM |  |
| O=c1cc(CO)occ1O [Zn(Koj)2] |  | 0.91 mM |  |
| O=C(O)C1CSCN1 [Zn(L-4Tia)2] |  | 1.2 mM |  |
| COC(=O)C(N)C[S-].COC(=O)C(N)C[S-].[Zn+2] [Zn(Cys-OMe)2, bis(L-cysteine methyl ester) zinc (II) complex] |  |  | body weight change (weight loss as an index of side effects) (KK-A^y mice [1]): no increase or decrease in the body weight was observed |
| NC(=O)CC[C@H](N)C(=O)O [Zn(Gln)2] | 0.84 mM |  |  |
| O=C([O-])c1cccnc1.O=C([O-])c1cccnc1.[Zn+2] [Zn(Nic)2/4H2O] | 0.82 mM |  |  |
| O=C(O)C1CSCN1 [Zn(D-4Tia)2] |  | 1.28 mM |  |
| bis(3-hydroxy-2-methyl-4-pyronate) zinc (II) complex [Zn(maltol)2/2.6H2O] | 0.57 mM |  | body weight change (weight loss as an index of side effects) (KK-A^y mice [1]): immediately after the treatment with the complex, the body weight was recovered in response to the reduction in the blood glucose and the reduction in the dose; glucose tolerance test after the administration of each complex for 15 days (KK-A^y mice [2]): an amelioration of the diabetes conditions when compared with the diabetes mice (control mice) |
| bis(2-mercaptopyridine-N-oxide) zinc (II) complex [Zn(MPNO)2/0.3H2O] | 0.011 mM | 0.013 mM |  |
| O.O.O=C([O-])c1ccccn1.O=C([O-])c1ccccn1.[Zn+2] [trans-[Zn(PA)2H2O)2], trans-bis(picolinate) zinc (II) complex] |  |  | body weight change (weight loss as an index of side effects) (KK-A^y mice [1]): not observed in most of the animals; glucose tolerance test after the administration of each complex for 15 days (KK-A^y mice [2]): an amelioration of the diabetes conditions when compared with the diabetes mice (control mice); blood glucose curve in glucose tolerance test (KK-A^y mice [3]): a reduced peak level of the blood glucose followed by a rapid decrease, as compared with the mice not receiving the complex and then recovered its almost normal blood glucose level after 180 minutes |
| bis(pyrrolidine-N-dithiocarbamate) zinc (II) complex [Zn(PCD)2] |  | 0.049 mM |  |
| Cc1cccc(C(=O)[O][Zn][O]C(=O)c2cccc(C)n2)n1 [Zn(6MPA)2(H2O), bis(6-methyl-picolinate)zinc(II)complex] | 0.39 mM |  |  |
